Laboratory results: patent US10968225B2, “Compounds and compositions for the treatment of cystic fibrosis” (Fondazione Istituto Italiano Di Tecnologia, priority 2017, dated 2021)
Structures can show the parent of a compound that is named as a salt.

Molecular target: T1, mutant CFTR (Homo sapiens, UniProt P13569, DEL508-508)
T1 construct: expressed in transfected cells
Assay: Fluorescence (HS-YFP) assay for CFTR activity, corrector assay
Format: cell-based
Conditions: CFBE41o- and FRT cells with stable expression of mutant CFTR, read-out: activity (EC50)

T1 sequence (P13569 with tags, fused parts or gaps DEL508-508): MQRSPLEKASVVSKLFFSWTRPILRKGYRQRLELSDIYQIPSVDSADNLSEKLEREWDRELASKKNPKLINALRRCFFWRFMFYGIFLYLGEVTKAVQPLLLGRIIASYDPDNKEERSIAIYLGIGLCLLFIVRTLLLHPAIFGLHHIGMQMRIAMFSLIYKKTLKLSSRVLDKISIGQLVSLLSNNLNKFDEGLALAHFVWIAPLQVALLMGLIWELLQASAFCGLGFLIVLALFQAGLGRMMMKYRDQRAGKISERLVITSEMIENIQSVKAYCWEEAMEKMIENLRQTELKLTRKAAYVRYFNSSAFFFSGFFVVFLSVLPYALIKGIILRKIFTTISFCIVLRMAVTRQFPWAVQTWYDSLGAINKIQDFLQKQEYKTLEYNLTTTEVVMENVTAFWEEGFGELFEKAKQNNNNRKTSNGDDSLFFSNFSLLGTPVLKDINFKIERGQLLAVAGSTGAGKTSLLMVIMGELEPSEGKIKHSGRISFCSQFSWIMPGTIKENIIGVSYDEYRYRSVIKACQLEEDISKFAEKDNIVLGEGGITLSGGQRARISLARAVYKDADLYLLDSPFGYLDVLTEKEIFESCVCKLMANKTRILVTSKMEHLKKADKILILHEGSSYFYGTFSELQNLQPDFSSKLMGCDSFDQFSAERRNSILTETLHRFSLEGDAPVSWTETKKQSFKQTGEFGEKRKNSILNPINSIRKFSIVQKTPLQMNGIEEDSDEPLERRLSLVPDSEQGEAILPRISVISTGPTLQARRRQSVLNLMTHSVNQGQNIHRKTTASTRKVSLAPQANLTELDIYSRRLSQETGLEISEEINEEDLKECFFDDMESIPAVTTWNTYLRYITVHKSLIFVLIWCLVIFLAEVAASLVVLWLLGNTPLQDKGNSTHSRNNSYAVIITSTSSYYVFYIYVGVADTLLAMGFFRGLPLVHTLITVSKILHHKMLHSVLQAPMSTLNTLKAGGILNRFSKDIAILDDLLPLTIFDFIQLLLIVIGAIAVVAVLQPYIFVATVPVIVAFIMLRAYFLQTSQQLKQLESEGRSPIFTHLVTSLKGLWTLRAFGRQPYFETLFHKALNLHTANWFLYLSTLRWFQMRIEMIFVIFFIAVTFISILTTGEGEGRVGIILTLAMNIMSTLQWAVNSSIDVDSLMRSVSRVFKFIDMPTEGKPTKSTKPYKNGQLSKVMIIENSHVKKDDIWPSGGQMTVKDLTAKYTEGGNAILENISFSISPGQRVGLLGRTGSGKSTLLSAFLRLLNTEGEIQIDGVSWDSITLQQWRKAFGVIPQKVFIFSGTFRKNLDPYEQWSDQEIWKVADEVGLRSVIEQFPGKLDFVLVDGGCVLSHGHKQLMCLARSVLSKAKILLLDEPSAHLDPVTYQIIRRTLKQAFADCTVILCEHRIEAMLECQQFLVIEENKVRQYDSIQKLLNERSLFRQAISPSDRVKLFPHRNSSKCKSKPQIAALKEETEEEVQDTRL

`CN(C(=O)c1cccc(-n2nc(C(F)(F)F)c3c2CCN(C2CC(C(=O)O)C2)C3)c1)c1ccc2c(c1)OCO2` (stereo not shown) [Compound 140, 3-[1-[3-[1,3-Benzodioxol-5-yl(methyl)carbamoyl]phenyl]-3-(trifluoromethyl)-6,7-dihydro-4H-pyrazolo[4,3-c]pyridin-5-yl]cyclobutanecarboxylic acid] and `CN(C(=O)c1cccc(-n2nc(C(F)(F)F)c3c2CCN(CCCC(=O)O)C3)c1)c1ccc2c(c1)OCO2` [Compound 135, 4-[1-[3-[1,3-Benzodioxol-5-yl(methyl)carbamoyl]phenyl]-3-(trifluoromethyl)-6,7-dihydro-4H-pyrazolo[4,3-c]pyridin-5-yl]butanoic acid] cannot be ordered by EC50: greater than 2000 nM for the first, greater than 2000 nM for the second.

`CN(C(=O)c1cccc(-n2nc(C(F)(F)F)c3c2C(Oc2ccc(C(=O)O)cn2)CCC3)c1)c1ccc2c(c1)OC(F)(F)O2` (stereo not shown) [Compound 180, 6-[[1-[3-[(2,2-Difluoro-1,3-benzodioxol-5-yl)-methyl-carbamoyl]phenyl]-3-(trifluoromethyl)-4,5,6,7-tetrahydroindazol-7-yl]oxy]pyridine-3-carboxylic acid] and `CN(C(=O)c1cccc(-n2nc(C(F)(F)F)c3c2C(Oc2cc(C(=O)O)ccn2)CCC3)c1)c1ccc2c(c1)OC(F)(F)O2` (single isomer, unassigned) [Compound 198, (R) or (S)-2-[[1-[3-[(2,2-Difluoro-1,3-benzodioxol-5-yl)-methyl-carbamoyl]phenyl]-3-(trifluoromethyl)-4,5,6,7-tetrahydroindazol-7-yl]oxy]pyridine-4-carboxylic acid] cannot be ordered by EC50: less than 1000 nM for the first, less than 1000 nM for the second.

Compared with `Cc1[nH]nc(C(=O)O)c1S(=O)(=O)N1CCc2c(c(C(F)(F)F)nn2-c2cccc(C(=O)N(C)c3ccc4c(c3)OCO4)c2)C1` [Compound 089, 4-[[1-[3-[1,3-Benzodioxol-5-yl(methyl)carbamoyl]phenyl]-3-(trifluoromethyl)-6,7-dihydro-4H-pyrazolo[4,3-c]pyridin-5-yl]sulfonyl]-5-methyl-1H-pyrazole-3-carboxylic acid], `CN(C(=O)c1cccc(-n2nc(C(F)(F)F)c3c2CCN(S(=O)(=O)c2ccc(C(=O)O)cc2)C3)c1)c1ccc2c(c1)OCO2` [Compound 057, 4-[[1-[3-[1,3-Benzodioxol-5-yl(methyl)carbamoyl]phenyl]-3-(trifluoromethyl)-6,7-dihydro-4H-pyrazolo[4,3-c]pyridin-5-yl]sulfonyl]benzoic acid] is higher in EC50: less than 1000 nM for the first, 1000 to 2000 nM for the second.

`CN(C(=O)c1cccc(-n2nc(C(F)(F)F)c3c2C(Oc2ccc(C(=O)O)cc2)CCC3)c1)c1ccc2c(c1)OC(F)(F)O2` (single isomer, unassigned) [Compound 151, (S) or (R)-4-[[1-[3-[(2,2-Difluoro-1,3-benzodioxol-5-yl)-methyl-carbamoyl]phenyl]-3-(trifluoromethyl)-4,5,6,7-tetrahydroindazol-7-yl]oxy]benzoic acid] and `CN(C(=O)c1cccc(-n2nc(C(F)(F)F)c3c2C(Oc2ccc(C(N)=O)cc2)CCC3)c1)c1ccc2c(c1)OC(F)(F)O2` (single isomer, unassigned) [Compound 284, (S) or (R)-3-[7-(4-Carbamoylphenoxy)-3-(trifluoromethyl)-4,5,6,7-tetrahydroindazol-1-yl]-N-(2,2-difluoro-1,3-benzodioxol-5-yl)-N-methyl-benzamide] cannot be ordered by EC50: less than 1000 nM for the first, less than 1000 nM for the second.

`CN(C(=O)c1cccc(-n2nc(C(F)(F)F)c3c2CCNC3)c1)c1ccc2c(c1)OCO2` [Compound 002, N-(1,3-Benzodioxol-5-yl)-N-methyl-3-[3-(trifluoromethyl)-4,5,6,7-tetrahydropyrazolo[4,3-c]pyridin-1-yl] benzamide hydrochloride] and `CN(C(=O)c1cccc(-n2nc(C(F)(F)F)c3c2CNCC3)c1)c1ccc2c(c1)OCO2` [Compound 038, N-(1,3-Benzodioxol-5-yl)-N-methyl-3-[3-(trifluoromethyl)-4,5,6,7-tetrahydropyrazolo[3,4-c]pyridin-1-yl] benzamide hydrochloride] cannot be ordered by EC50: less than 1000 nM for the first, less than 1000 nM for the second.

Compared with `CC(C)c1nn(-c2cccc(C(=O)N(C)c3ccc4c(c3)OC(F)(F)O4)c2)c2c1CCCC2` [Compound 102, N-(2,2-difluoro-1,3-benzodioxol-5-yl)-3-(3-isopropyl-4,5,6,7-tetrahydroindazol-1-yl)-N-methyl-benzamide], `CN(C(=O)c1cccc(-n2nc(C(F)(F)F)c3c2CCN(C(=O)C(C)(C)O)C3)c1)c1ccc2c(c1)OCO2` [Compound 058, N-(1,3-Benzodioxol-5-yl)-3-[5-(2-hydroxy-2-methyl-propanoyl)-3-(trifluoromethyl)-6,7-dihydro-4H-pyrazolo[4,3-c]pyridin-1-yl]-N-methyl-benzamide] is lower in EC50: 1000 to 2000 nM for the first, less than 1000 nM for the second. The second is the more potent here.

`CN(C(=O)c1cccc(-n2nc(C(F)F)c3c2C(Oc2ccc(C(=O)O)cc2)COC3)c1)c1ccc2c(c1)OC(F)(F)O2` (racemic) [Compound 263, 4-[[1-[3-[(2,2-difluoro-1,3-benzodioxol-5-yl)-methyl-carbamoyl]phenyl]-3-(difluoromethyl)-6,7-dihydro-4H-pyrano[4,3-c]pyrazol-7-yl]oxy]benzoic acid] and `CN(C(=O)c1cccc(-n2nc(C(F)(F)F)c3c2C(Oc2ccc(C(=O)O)nc2)CCC3)c1)c1ccc2c(c1)OC(F)(F)O2` (single isomer, unassigned) [Compound 186, (R) or (S)-5-[[1-[3-[(2,2-Difluoro-1,3-benzodioxol-5-yl)-methyl-carbamoyl]phenyl]-3-(trifluoromethyl)-4,5,6,7-tetrahydroindazol-7-yl]oxy]pyridine-2-carboxylic acid] cannot be ordered by EC50: less than 1000 nM for the first, less than 1000 nM for the second.

Going from `COc1cc(N(C)C(=O)c2cccc(-n3nc(C(F)(F)F)c4c3C(Oc3ccc(C(=O)O)cc3)CCC4)c2)ccc1F` (racemic) [Compound 308, 4-[[1-[3-[(4-Fluoro-3-methoxy-phenyl)-methyl-carbamoyl]phenyl]-3-(trifluoromethyl)-4,5,6,7-tetrahydroindazol-7-yl]oxy]benzoic acid] to `COc1ncc(N(C)C(=O)c2cccc(-n3nc(C(F)(F)F)c4c3C(Oc3ccc(C(=O)O)cc3)CCC4)c2)cn1` (stereo not shown) [Compound 168, 4-[[1-[3-[(2-Methoxypyrimidin-5-yl)-methyl-carbamoyl]phenyl]-3-(trifluoromethyl)-4,5,6,7-tetrahydroindazol-7-yl]oxy]benzoic acid], the EC50 falls from greater than 2000 nM to less than 1000 nM. The second is the more potent here.

Compared with `CN(C(=O)c1cccc(-n2nc(C(F)(F)F)c3c2CN(S(=O)(=O)c2ccc(C(=O)O)cc2)CC3)c1)c1ccc2c(c1)OCO2` [Compound 077, 4-[[1-[3-[1,3-Benzodioxol-5-yl(methyl)carbamoyl]phenyl]-3-(trifluoromethyl)-5,7-dihydro-4H-pyrazolo[3,4-c]pyridin-6-yl]sulfonyl]benzoic acid], `CN(C(=O)c1cccc(-n2nc(C(F)(F)F)c3c2CCN(C(=O)c2ccc(C(=O)O)cc2)C3)c1)c1ccc2c(c1)OCO2` [Compound 044, 4-[1-[3-[1,3-Benzodioxol-5-yl(methyl)carbamoyl]phenyl]-3-(trifluoromethyl)-6,7-dihydro-4H-pyrazolo[4,3-c]pyridine-5-carbonyl]benzoic acid] is higher in EC50: 1000 to 2000 nM for the first, greater than 2000 nM for the second. The first is the more potent here.

`CN(C(=O)c1cccc(-n2nc(C(F)(F)F)c3c2CCN(C(=O)C(C)(C)C(F)(F)F)C3)c1)c1ccc2c(c1)OCO2` [Compound 033, N-(1,3-Benzodioxol-5-yl)-N-methyl-3-[5-(3,3,3-trifluoro-2,2-dimethyl-propanoyl)-3-(trifluoromethyl)-6,7-dihydro-4H-pyrazolo[4,3-c]pyridin-1-yl]benzamide] and `Cc1nc(S(=O)(=O)N2CCc3c(c(C(F)(F)F)nn3-c3cccc(C(=O)N(C)c4ccc5c(c4)OCO5)c3)C2)cn1C` [Compound 064, N-(1,3-Benzodioxol-5-yl)-3-[5-(1,2-dimethylimidazol-4-yl)sulfonyl-3-(trifluoromethyl)-6,7-dihydro-4H-pyrazolo[4,3-c]pyridin-1-yl]-N-methyl-benzamide] cannot be ordered by EC50: less than 1000 nM for the first, less than 1000 nM for the second.

Compared with `COc1ncc(N(C)C(=O)c2cccc(-n3nc(C(F)(F)F)c4c3C(Oc3ccc(C(=O)O)cc3)COC4)c2)cn1` (racemic) [Compound 306, 4-[[1-[3-[(2-Methoxypyrimidin-5-yl)-methyl-carbamoyl]phenyl]-3-(trifluoromethyl)-6,7-dihydro-4H-pyrano[4,3-c]pyrazol-7-yl]oxy]benzoic acid], `CN(C(=O)c1cccc(-n2nc(C(F)(F)F)c3c2C(Oc2ccc(C(=O)O)cc2)CCC3)c1)c1ccnc(OC(F)F)c1` (single isomer, unassigned) [Compound 288, (R) or (S)-4-[[1-[3-[[2-(Difluoromethoxy)-4-pyridyl]-methyl-carbamoyl]phenyl]-3-(trifluoromethyl)-4,5,6,7-tetrahydroindazol-7-yl]oxy]benzoic acid] is lower in EC50: 1000 to 2000 nM for the first, less than 1000 nM for the second.

First: CN(C(=O)c1cccc(-n2nc(C(F)(F)F)c3c2C(Oc2ccc(C(=O)O)cn2)CCC3)c1)c1ccc2c(c1)OC(F)(F)O2 (single isomer, unassigned) [Compound 194, (R) or (S)-6-[[1-[3-[(2,2-Difluoro-1,3-benzodioxol-5-yl)-methyl-carbamoyl]phenyl]-3-(trifluoromethyl)-4,5,6,7-tetrahydroindazol-7-yl]oxy]pyridine-3-carboxylic acid]
Second: Cc1nc2ccc(N(C)C(=O)c3cccc(-n4nc(C(F)(F)F)c5c4CCNC5)c3)cc2o1 [Compound 030, N-Methyl-N-(2-methyl-1,3-benzoxazol-6-yl)-3-[3-(trifluoromethyl)-4,5,6,7-tetrahydropyrazolo[4,3-c]pyridin-1-yl]benzamide hydrochloride]
The EC50 of the first is lower: less than 1000 nM for the first, 1000 to 2000 nM for the second.

`Cc1noc(C)c1S(=O)(=O)N1[C@@H]2CC[C@H]1c1c(C(F)(F)F)nn(-c3cccc(C(=O)N(C)c4ccc5c(c4)OCO5)c3)c1C2` (single isomer, unassigned) [Compound 128, (4S,7R)- or (4R,7S)—N-(Benzo[d][1,3]dioxol-5-yl)-3-(9-((3,5-dimethylisoxazol-4-yl)sulfonyl)-3-(trifluoromethyl)-5,6,7,8-tetrahydro-4,7-epiminocyclohepta[c]pyrazol-1(4H)-yl)-N-methylbenzamide] showed an EC50 of less than 1000 nM.
